Measurements reported in publication PMC3319082 (Bioorganic & medicinal chemistry letters, 2011).

Target: rat mGlu4 (Rattus norvegicus, UniProt P31423)
Format: cell-based
Conditions: rat mGlu4/GIRK cells, Fig. 2

Sequence of rat mGlu4 (P31423 33-912): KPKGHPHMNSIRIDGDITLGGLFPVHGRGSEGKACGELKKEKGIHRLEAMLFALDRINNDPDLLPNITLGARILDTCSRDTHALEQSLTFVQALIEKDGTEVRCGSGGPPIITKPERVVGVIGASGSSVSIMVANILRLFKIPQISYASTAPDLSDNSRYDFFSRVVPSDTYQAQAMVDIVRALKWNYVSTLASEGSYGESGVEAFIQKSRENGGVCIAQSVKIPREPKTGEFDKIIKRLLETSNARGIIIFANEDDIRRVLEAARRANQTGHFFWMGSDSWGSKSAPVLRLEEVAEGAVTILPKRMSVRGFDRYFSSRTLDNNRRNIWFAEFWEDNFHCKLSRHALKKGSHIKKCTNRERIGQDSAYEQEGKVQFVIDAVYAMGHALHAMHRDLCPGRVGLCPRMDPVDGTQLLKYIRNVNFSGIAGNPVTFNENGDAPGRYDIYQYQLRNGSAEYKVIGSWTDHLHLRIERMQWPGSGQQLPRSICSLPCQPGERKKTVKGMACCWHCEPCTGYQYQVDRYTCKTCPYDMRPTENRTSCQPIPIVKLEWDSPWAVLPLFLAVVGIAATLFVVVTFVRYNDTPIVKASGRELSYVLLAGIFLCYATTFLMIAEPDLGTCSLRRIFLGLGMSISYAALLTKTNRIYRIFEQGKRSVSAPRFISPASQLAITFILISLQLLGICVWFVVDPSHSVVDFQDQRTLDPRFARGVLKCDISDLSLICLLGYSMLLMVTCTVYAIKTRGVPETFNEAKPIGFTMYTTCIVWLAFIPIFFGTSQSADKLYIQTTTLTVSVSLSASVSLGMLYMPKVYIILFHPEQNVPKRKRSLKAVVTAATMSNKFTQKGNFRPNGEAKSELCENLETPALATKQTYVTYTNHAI

O=C(COc1ccccc1Br)c1ccc(Cl)nc1 [2e]
Antagonist activity in rat mGlu4 thallium flux assay: confirmed to be active
